Assay results: patent US12606553B2, “Crystalline forms, compositions containing same, and methods of their use” (FOGHORN THERAPEUTICS INC., priority 2021, dated 2026)

Key:
Format in all cases: physicochemical
[1] = Competitive suspension equilibration study; details: room temperature and 60° C.
Method: A competitive suspension equilibration study was carried out to identify the relative stability of the two crystalline forms of the compound of formula (I) in aqueous and organic solvent systems. Competitive suspension equilibration experiments were conducted in ethyl acetate, 50% methanol/water (v/v) and 50% acetonitrile/water (v/v) at room temperature and 60° C. […] Further crystalline forms of the compound of formula (I) (e.g., the first and second crystalline forms of the compound of formula (I)) were added for conversion material and to act as seeds. Each suspension was allowed to stir for 7 or 14 days, and were analyzed via XRPD to determine which form the solids had converted to.

[2] = Evaporative salt and co-crystal screen (1H NMR, HPLC); details: combined with sodium hydroxide and potassium hydroxide
[3] = Dynamic vapor sorption (DVS), with XRPD on the post-DVS sample; details: for DVS weight increase during exposure to 80% RH: 25° C., humidity ramped 0 to 95% RH, value at 80% RH; for structural change by XRPD after DVS (exposure to high humidity): XRPD on post-DVS sample; for hygroscopicity classification from DVS: based on weight increase up to 80% RH
Method: Dynamic vapor sorption (DVS) was carried out using the TA Instruments Q5000 SA. A predefined amount of the sample, 2.0 to 10.0 mg, was placed in a platinum pan. The sample was allowed to equilibrate at 50° C. at 0% RH for a period of 60 minutes. The sample was then equilibrated at 25° C. before ramping the humidity from 0 to 95% RH at 5% increments every hour. A similar ramp profile was used for desorption cycle. XRPD analysis was also performed on post DVS sample.

[4] = Thermal gravimetric analysis (TGA) and DSC: thermal degradation; details: heated at 10° C./minute under nitrogen
Method: (§1) DSC data was collected on a TA Instruments Q2000 DSC. A predefined amount of the sample, 2.0 to 10.0 mg, was placed in an aluminum pan and heated at 5° C./minute from 25° C. to 220° C. A purge of dry nitrogen at 100 mL/minute was maintained over the sample. The instrument control and data acquisition are acquired using Q Advantage software release version 5.5.23. The data was processed and presented using the TA Universal Analysis 2000 software version 4.5A build 4.5.0.5.
as §1, with “TGA” for “DSC”, “Q5000 TGA.” for “Q2000 DSC.”, “10°” for “5°”, “40°” for “25°”, “300° C., or varied as experimentation dictated.” for “220° C.”, “25” for “100”

[5] = Single solvent slurry screen
Method: Magnetic stirrers were added to vials, and the suspensions were allowed to stir at room temperature for 4 days. Solid samples generated were analyzed via XRPD to assess crystallinity and crystal structure.

[6] = Binary solvent slurry screen; details: room temperature
Method: Solvent combinations were selected based on solvent properties, functionality, and miscibility. […] Magnetic stirrers were added to vials, and the suspensions were allowed to stir at room temperature for 5 days.

[7] = Temperature cycled single solvent slurry screen
Method: Magnetic stirrers were added to vials, and the suspensions were cycled between 50° C. and 5° C. for three cycles with agitation. Solid samples generated were analyzed via XRPD to assess crystallinity and crystal structure. […] Solid samples were obtained from slurries in all other solvents screened.

chemical stability in a basic environment (1H NMR, HPLC) [2]	DVS weight increase during exposure to 80% RH [3]	structural change by XRPD after DVS (exposure to high humidity) [3]	hygroscopicity classification from DVS [3]	molecular degradation onset (TGA/DSC) [4]	molecular degradation temperature (TGA/DSC), degradation from [4]	solubility in THF ([5]; room temperature slurry)	crystal structure after slurry (XRPD), form stability ([5]; single solvents except THF, stirred at room temperature for 4 days)	crystal structure after slurry (XRPD), form stability ([6]; 50/50 (v/v) solvent mixtures except methanol/THF, 5 days)	solubility in methanol/THF ([6]; 50/50 (v/v))	crystal structure after slurry (XRPD), form stability ([7]; single solvents except THF, cycled between 50° C. and 5° C. for three cycles)	solubility in THF ([7]; temperature cycled slurry)	Structure (SMILES)	form conversion of mixed first and second crystalline forms (XRPD) ([1]; aqueous solvents (methanol/water 14 days, acetonitrile/water 7 days))	form conversion of mixed first and second crystalline forms (XRPD) ([1]; ethyl acetate, methanol, acetonitrile, within seven days)
molecular degradation was visible	–	–	–	–	–	–	–	–	–	–	–	COC[C@H](NC(=O)c1ccn(S(C)(=O)=O)c1)C(=O)Nc1nc(-c2cccc(N3C[C@@H](C)O[C@@H](C)C3)n2)cs1 [compound of formula (I)]	did not result in the conversion of either crystalline form to the other	fully converted to the second crystalline form
–	1.4 % (w/w)	no structural changes occurred	slightly hygroscopic	254.3 °C	220 °C	–	–	–	–	–	–	COC[C@H](NC(=O)c1ccn(S(C)(=O)=O)c1)C(=O)Nc1nc(-c2cccc(N3C[C@@H](C)O[C@@H](C)C3)n2)cs1 [first crystalline form of the compound of formula (I)]	–	–
–	0.04 % (w/w)	no structural changes occurred	non-hygroscopic	–	240 °C	extremely high	the same crystal structure	the same crystal structure	high	the same crystal structure	extremely high	COC[C@H](NC(=O)c1ccn(S(C)(=O)=O)c1)C(=O)Nc1nc(-c2cccc(N3C[C@@H](C)O[C@@H](C)C3)n2)cs1 [second crystalline form of the compound of formula (I)]	–	–
